Results published in article PMC10492782, “Exploiting the aggregation propensity of beta-lactamases to design inhibitors that induce enzyme misfolding” (Nature Communications, 2023).
Where “and” joins values, the source holds several entries; their conditions need not be identical. Equal entries are not always repeated.

Experiments:
[1] = test system: human erythrocytes; assay: Hemolysis; conditions: 2 h at 37 °C, normalized to 1% triton
Method: (§1) Fig. 7 Evaluation of in vivo use of peptides that induce the aggregation of TEM beta-lactamase. A Lysis of human erythrocytes (hemolysis) was assessed in the presence of the indicated concentrations of TEM3.2 for 2 h at 37 °C, and normalized to the value obtained with 1% of the detergent triton. […] B Cell viability using the CellTiter Blue assay of HeLa cells treated for 24 h with the indicated concentrations TEM 3.2 at 37 °C. […] DAPI (4’,6-diamidino-2-phenylindole) is blue, while CellMask is red. D Experimental workflow of the in vivo model used in this study. E–G Bacterial load of indicated organs of female C57BL/6JAX mice with a urinary tract infection with E. coli strain UZ_TEM104, treated with 30 mg/kg penicillin (oral) as well 10 mg/kg tazobactam (oral) or 10 mg/kg TEM3.2 via the indicated treatment route. IV intravenous, IP intraperitoneal, SC subcutaneously. The data shown is from a single experiment with 12 animals for each group. The result for each animal is shown as a dot. […] The statistically significant differences were determined using ANOVA, followed by Dunnett’s multiple comparison test. […] Source data are provided as a Source Data file.

[2] = Tolerability, dose escalation; type: in vivo, female C57BL/6JAX mice; conditions: mice; for Tox beheviour Sub: subcutaneous
Method: We also performed a tolerability study using a dose escalation method by administering the peptide at 2, 5, 10, 15, and 20 mg/kg via different parenteral routes: intravenous (IV), intraperitoneal (IP), and subcutaneous (SC) in female C57BL/6JAX mice, aged 8–10 weeks (Suppl Table 4). […] Vehicle alone (0.9% NaCl) was also administered (IV). After 24 h the animals were sacrificed and the bacterial load in the bladder, kidney, and ureter was quantified by determining the number of colony-forming units (CFU) per mL of tissue extract (Fig. 7E–G). […]

[3] = test system: E. coli TEM104; conditions: checkerboard, strain containing TEM1 / TEM-1; FICI below 0.5 = synergy
Method: To quantify the synergy between these four peptides and penicillin G, we performed a so-called checkerboard assay, which allows us to compare the activity of two test compounds co-incubated (here peptide and a beta-lactam antibiotic), to their individual activities in isolation. […] We evaluated the synergy of the peptides with penicillin G in clinical E. coli isolates carrying the TEM (Fig. 3D) or SHV enzymes (Fig. 3E). […] The list of strains included some that harbored only TEM or SHV, but others contained additional Ambler Class A (CTX-M or OXA) or Class B (VIM and NDM) beta-lactamases.
For the analysis of synergy between the peptides and other antibiotics, a checkerboard assay was performed. Based on the MICs of the selected peptides, a checkerboard assay was designed to define their FICIs (Fractional Inhibitory Concentration Index) in combinations against different clinical isolates[53],[54]. Briefly, a total volume of 100 μL of Mueller–Hinton broth was distributed into each well of the 96-well plates. The first compound (peptide) of the combination was serially diluted vertically (128, 64, 32, 16, 8, 4, 2, 0 μg/mL) while the other drug (Beta-lactam or Kanamycin) was diluted horizontally in a 96-well plate (from 3200 to 3 μg/ mL). The total volume of each microtiter well was inoculated with 100 μL of MHB containing 1 × 10^6 CFU/mL bacteria. The plates were incubated at 37 °C for 24 h under aerobic conditions without shaking. Calculation of the FICI is used to analyze the results of the checkerboard assay by estimating the degree of synergistic effect. FICI is calculated as the sum of the individual fractional inhibitory concentrations (FICs) for each drug (where MIC A and MIC B denote the MIC of each drug alone, and MIC AA+B and MIC BA+B denote the concentrations of A and B in the drug combination). FICI = (MIC AA+B/MIC A) + (MIC BA+B/MIC B). With FICI ≤ 0.5, the combination of antibiotics is considered as a synergistic effect, 0.5 < FICI ≤ 1 indicates additivity, FICI > 1 indicates indifference.

[4] = test system: uro-pathogenic E. coli strain (UPEC strain blaTEM-1); assay: Urinary tract infection model, bacterial load in bladder, kidney, ureter; type: in vivo, female C57BL/6JAX mice; design: bacterial load, Ureters / bacterial load, Bladder / bacterial load, Kindey: unit: CFU per mL of tissue extract; conditions: each column one mouse
Method: as §1
We also performed a tolerability study using a dose escalation method by administering the peptide at 2, 5, 10, 15, and 20 mg/kg via different parenteral routes: intravenous (IV), intraperitoneal (IP), and subcutaneous (SC) in female C57BL/6JAX mice, aged 8–10 weeks (Suppl Table 4). […] Vehicle alone (0.9% NaCl) was also administered (IV). After 24 h the animals were sacrificed and the bacterial load in the bladder, kidney, and ureter was quantified by determining the number of colony-forming units (CFU) per mL of tissue extract (Fig. 7E–G).
To test the efficacy of the peptides, a urinary tract infection model was performed as described previously. Briefly, female C57BL/6Jax mice female mice were deprived of water for at least 1 h. Then, they were anesthetized by IP administration of the mixture of ketamine (Nimatek)/xylazine (XYL-M 2% BE-V170581). The bladder of the mouse was massaged with fingers and pushed down gently to expel the remaining urine. Mice were slowly inoculated urethrally with 50 µL of a bacterial suspension slowly over 5 s to avoid vesicoureteral reflux (10^8 CFU/ mouse) using a sterile catheter (pediatric intravenous-access cannula (GS391350)). The catheter was removed directly after inoculation. After surgery, the animals were visually monitored for full recovery. After 1 h post inoculation, all mice received Ampicillin (30 mg/kg_PO-orally) and at the same time 3 groups of animals received the peptides via different administration routes (10 mg/kg_IV—intravenous; IP—intraperitoneal or SC—sub-cutaneous) and the positive control groups received tazobactam (10 mg/kg, PO). The negative control groups received vehicle or saline (IV administration). 2 h post inoculation, all mice received a second injection with the same concentration of each treatment as explained above. Twenty-four hours post-infection, mice were sacrificed and organs (kidney, bladder, ureter) were washed with PBS and were homogenized (Thermo Savant FastPrep FP120 Homogenizer/24 s). The homogenized tissues were serially diluted and cultured on blood agar plates. The plates were incubated overnight at 37 °C, and the number of bacteria was measured by CFU value.

Ac-RLTAFLHNRRPRLTAFLRQRR-NH2 [TEM3.2]
hemolysis (in words) [1]: not hemolytic to human erythrocytes | Tox beheviour IP ([2]; 2 mg/Kg): no sign of tox | Tox beheviour IV ([2]; 2 mg/Kg): no sign of tox | Tox beheviour Sub ([2]; 2 mg/Kg): no sign of tox | Tox beheviour IP ([2]; 5 mg/Kg): no sign of tox | Tox beheviour IV ([2]; 5 mg/Kg): no sign of tox | Tox beheviour Sub ([2]; 5 mg/Kg): no sign of tox | Tox beheviour IP ([2]; 10 mg/Kg): no sign of tox | Tox beheviour IV ([2]; 10 mg/Kg): no sign of tox | Tox beheviour Sub ([2]; 10 mg/Kg): no sign of tox | Tox beheviour IP ([2]; 15 mg/Kg): no sign of tox | Tox beheviour IV ([2]; 15 mg/Kg): no sign of tox | Tox beheviour Sub ([2]; 15 mg/Kg): no sign of tox | Tox beheviour IP ([2]; 20 mg/Kg): no sign of tox | Tox beheviour IV ([2]; 20 mg/Kg): no sign of tox | Tox beheviour Sub ([2]; 20 mg/Kg): no sign of tox | synergy with penicillin G (in words) [3]: showed synergy in both strains | bacterial load, Bladder ([4]; group IP): 833.333 (2×) and 4533.33 and 14866.7 and 4066.67 and 2533.33 and 900 and 1 (2×) and 37733.3 and 300 (2×) | bacterial load, Kindey ([4]; group IP): 3566.67 and 133.333 and 27833.3 and 2666.67 and 1 (5×) and 4300 and 1700 and 2600 | bacterial load, Ureters ([4]; group IP): 6333.33 and 33.3333 and 9933.33 and 233.333 and 1 (5×) and 1166.67 and 133.333 and 2500 | bacterial load, Bladder ([4]; group IV): 9200 and 1 (3×) and 6366.67 and 4033.33 and 1500 and 566.667 and 2833.33 and 266.667 and 66.6667 and 1833.33 | bacterial load, Kindey ([4]; group IV): 1333.33 and 50433.3 and 24133.3 and 22233.3 and 400 (2×) and 1 (2×) and 29 and 6466.67 and 333.333 and 1900 | bacterial load, Ureters ([4]; group IV): 10766.7 and 11733.3 and 2766.67 and 2633.33 and 1 (4×) and 15700 and 9366.67 and 766.667 and 233.333 | bacterial load, Bladder ([4]; group Sub): 20866.7 and 166.667 and 3866.67 and 32100 and 933.333 and 300 and 1 (2×) and 1600 and 1500 and 366.667 and 133.333 | bacterial load, Kindey ([4]; group Sub): 18933.3 and 1 (6×) and 5766.67 and 66.6667 and 3300 and 4300 and 466.667 | bacterial load, Ureters ([4]; group Sub): 5500 and 1 (6×) and 5866.67 and 13433.3 and 2800 and 333.333 and 900
